Test [1] has as its target T1, human B1R (bradykinin receptor 1) (Homo sapiens, UniProt P46663).
T1 construct: expressed in transfected cells; host or cells: CHO K1 cells
T1 sequence (P46663 1-353): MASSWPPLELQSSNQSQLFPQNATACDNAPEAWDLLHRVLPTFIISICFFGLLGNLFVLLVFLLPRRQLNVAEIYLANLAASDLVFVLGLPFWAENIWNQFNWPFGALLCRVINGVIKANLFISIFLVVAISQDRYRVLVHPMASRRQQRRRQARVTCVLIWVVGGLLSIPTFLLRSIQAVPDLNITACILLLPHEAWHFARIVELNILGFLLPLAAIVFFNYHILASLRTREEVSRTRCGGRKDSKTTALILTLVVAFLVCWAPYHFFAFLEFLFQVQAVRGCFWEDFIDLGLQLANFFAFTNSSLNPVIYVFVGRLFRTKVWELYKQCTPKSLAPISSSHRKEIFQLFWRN
The experiment in a line: FLIPR Ca2+ assay (Fluo-4) on CHO K1 cells stably transfected with the human B1R gene (hB1R cells): % inhibition at 10 μM / IC50, agonist Lys-Des-Arg9-bradykinin. The following applies: CHO-K1, human B1R. The format is cell-based. In short, it runs like this:
(§1)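 Stably transfected CHO K1 cells loaded with Fluo-4 and read on FLIPR (λex 488, λem 540 nm; peak fluorescence). Test substance (10 μM) added first, then after 10–20 min the agonist at EC80; % inhibition versus maximum achievable inhibition. IC50 from several concentrations, n=2–3, N≥2.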

For test [2], the target named is T2, rat B1R (bradykinin receptor 1) (Rattus norvegicus, UniProt P97583).
T2 construct: expressed in transfected cells; host or cells: CHO K1 cells
T2 sequence (P97583 1-337): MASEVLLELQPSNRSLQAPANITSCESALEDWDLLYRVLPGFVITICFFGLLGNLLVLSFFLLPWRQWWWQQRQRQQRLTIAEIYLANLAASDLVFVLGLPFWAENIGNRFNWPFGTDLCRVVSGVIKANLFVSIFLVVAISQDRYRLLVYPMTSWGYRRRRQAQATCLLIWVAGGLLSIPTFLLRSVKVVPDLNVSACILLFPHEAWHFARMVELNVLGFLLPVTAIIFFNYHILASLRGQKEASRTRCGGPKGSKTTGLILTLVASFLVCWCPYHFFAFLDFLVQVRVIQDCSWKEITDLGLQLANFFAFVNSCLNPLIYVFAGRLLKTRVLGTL
The experiment in a line: FLIPR Ca2+ assay (Fluo-4) on CHO K1 cells stably transfected with the B1R gene of the rat (rB1R cells): % inhibition at 10 μM / IC50, agonist Des-Arg9-bradykinin. The format is cell-based. Conditions: CHO-K1, rat B1R. In short, it runs like this: as §1

`CC1(C)CC(NC(=O)c2cc(C(F)(F)F)ccc2Cl)c2cc(C(=O)N3CCC4(CC3)CCN(c3ccncc3)CC4)ccc21` (centres unmarked) [IND_CC-250, 2-Chloro-N-[3,3-dimethyl-6-(3-pyridin-4-yl-3,9-diazaspiro[5.5]undecane-9-carbonyl)-1,2-dihydro-inden-1-yl]-5-(trifluoromethyl)-benzamide]: the inhibition (in general, the relative decrease from the control value, in per cent) at 10 µM turned out to be 94% in test [1] and 100% in test [2].
The corresponding values for `COc1ccc2cc(C(=O)N[C@@H]3CCc4ccc(C(=O)N5CCC6(CC5)CCN(c5ccncc5)C6)cc43)ccc2c1` [Example H-68, 6-Methoxy-N-[(1R)-6-(3-pyridin-4-yl-3,8-diazaspiro[4.5]decane-8-carbonyl)-2,3-dihydro-1H-inden-1-yl]-naphthalene-2-carboxylic acid amid] are 96% and 93%.
The corresponding values for `Cc1cc2c(cc1C(=O)N1CCC3(CC1)CCN(c1ccncc1)C3)[C@H](NC(=O)c1ccccc1Cl)CC2` [Example H-59, 2-Chloro-N-[(1R)-5-methyl-6-(3-pyridin-4-yl-3,8-diazaspiro[4.5]decane-8-carbonyl)-2,3-dihydro-1H-inden-1-yl]-benzamide] are 99% and 105%.
The like results for `O=C(NCc1ccccc1Cl)NC1CCc2ccc(C(=O)N3CCC4(CC3)CCN(c3ccncc3)C4)cc21` (centres unmarked) [Ind_CC-048, 1-[(2-chlorophenyl)-methyl]-3-[6-(2-pyridin-4-yl-2,8-diazaspiro[4.5]decane-8-carbonyl)-2,3-dihydro-1H-inden-1-yl]-urea] were, in that order, 98% and 88%.
For `O=C(NC1CCc2ccc(C(=O)N3CCC4(CC3)CCN(c3ccncc3)C4)cc21)c1cc(F)ccc1Cl` (centres unmarked) [IND_CC-221, 2-Chloro-5-fluoro-N-[6-(2-pyridin-4-yl-2,8-diazaspiro[4.5]decane-8-carbonyl)-2,3-dihydro-1H-inden-1-yl]-benzamide], the values for the inhibition at 10 µM in test [1] and in test [2] were 100% and 104%, respectively.
As to `O=C(NC1CCc2ccc(C(=O)N3CCC4(CC3)CCN(c3ccncc3)CC4)cc21)c1cc(Cl)ccc1C(F)(F)F` (centres unmarked) [IND_CC-302, 5-Chloro-N-[6-(9-pyridin-4-yl-3,9-diazaspiro[5.5]undecane-3-carbonyl)-2,3-dihydro-1H-inden-1-yl]-2-(trifluoromethyl)-benzamide], the results for the inhibition at 10 µM in test [1] and in test [2] were 99% and 106%, respectively.
The corresponding values for `O=C(NC1CCc2ccc(C(=O)N3CCC4(CCC(N5CCC5)CC4)CC3)cc21)c1ccccc1Cl` (centres unmarked) [Example H-06, N-[6-[9-(azetidin-1-yl)-3-azaspiro[5.5]undecane-3-carbonyl)-2,3-dihydro-1H-indan-1-yl]-2-chloro-benzamide] are 60% and 98%.
As for `O=C(N[C@@H]1CCc2c(C(=O)N3CCC4(CC3)CCN(c3ccncc3)CC4)cccc21)c1ccccc1Cl` [Example H-164, 2-Chloro-N-[(1R)-4-(9-pyridin-4-yl-3,9-diazaspiro[5.5]undecane-3-carbonyl)-2,3-dihydro-1H-inden-1-yl]-benzamide], the inhibition at 10 µM came out at 25% in test [1] and 77% in test [2].
On to `COc1ccc(N2CCC3(CCN(C(=O)c4ccc5c(c4)[C@H](NC(=O)c4ccccc4Cl)CC5)C3)CC2)cc1` [Example H-139, 2-Chloro-N-[(1R)-6-[8-(4-methoxyphenyl)-3,8-diazaspiro[4.5]decane-3-carbonyl]-2,3-dihydro-1H-inden-1-yl]-benzamide], for which the inhibition at 10 µM was found to be 31% in test [1] and 98% in test [2].
On to `Cc1ncccc1C(=O)N[C@@H]1CCc2ccc(C(=O)N3CCC4(CCN(c5ccncc5)CC4)C3)cc21` [Example H-114, 2-Methyl-N-[(1R)-6-(8-pyridin-4-yl-3,8-diazaspiro[4.5]decane-3-carbonyl)-2,3-dihydro-1H-inden-1-yl]-pyridine-3-carboxylic acid amide], for which the figures for the inhibition at 10 µM in test [1] and in test [2] were 100% and 102%, respectively.
